Marks after values point to notes of the source that are not given here.
Key:
[1] = system: spleen and liver of M. avium-infected mice; assay: Histologic examination of spleen and liver of M. avium-infected mice; assay type: in vivo
Experimental: Sections of the spleen and liver collected from the experimental and control M. avium-infected mice at 2, 4, and 6 weeks post-infection, were fixed overnight in 10% buffered formalin at room temperature, and embedded in paraffin. The paraffin-embedded tissue was further sectioned (5 μm thickness), stained with hematoxylin-eosin and observed under an Olympus microscope. At least three sections from each organ of each of the experimental and control mice were evaluated and representative fields were viewed at 100×.

M. avium = assay: Intracellular growth of M. avium in mouse bone marrow-derived macrophages (mBMDM) in vitro, CFU assay; assay type: cell-based, Mycobacterium avium; conditions: for % of CFU: 10 μg/ml 72 h prior to infection, medium alone = 100%
Experimental: A previously studied M. avium strain 13 (Hayashi, et al. (1999) Infect. Immun. 67:3558-3565; Meylan, et al. (1990) Infect. Immun. 58:2564-2568), isolated from an AIDS patient at UCSD, San Diego, Calif., was used in all experiments. The organism was cultured on Middlebrook 7H11 agar (Difco Laboratories, Detroit, Mich.) with OADC enrichment at 37° C. in the presence of 5% CO2 for two weeks. Transparent colonies were selectively picked and further cultured on Middlebrook 7H11 plates for two more weeks. The resulting colonies, which were predominantly transparent (>90%), were then collected and washed two times with phosphate-buffered saline (PBS). The bacteria were finally resuspended in Middlebrook 7H9 broth (Difco Laboratories) and the OD600 of the suspension was adjusted to 0.15-0.2. The suspension was aliquoted and stored at −70° C. until use. The number of organisms/ml of this suspension was determined by the colony forming unit (CFU) assay.
The number of CFU in a given sample was determined by colony counting as described previously (Ogata, et al. (1992) Infect. Immun. 60:4720-4725). Serial 10-fold dilutions of total cell lysates or tissue homogenates were performed in PBS. 10 μl of each dilution were plated on Middlebrook 7H11 plates supplemented with OADC enrichment. The plates were incubated up to 14 days at 37° C. The number of colonies was counted every alternate day from day 10 onwards until no new colonies appeared. This yielded the number of CFU/10 μl. The number of CFU in each well was then calculated.
Preparation of Murine Macrophages. Mouse bone marrow-derived macrophages (mBMDM) were prepared from mouse bone marrow using L-cell conditioned media, as described in Martin-Orozco, et al. (1999) […] 11:1111-1118.
Alternatively, 5×10^4 mBMDM or hMDM was treated with ISS for 3 days before infection. Macrophages treated with M-ODN or with media alone served as controls. After 3 days, the cells were infected for 2 hrs with M. avium at a macrophage:bacteria ratio of 2:1 for mBMDM or of 1:10 for hMDM, and subsequently cultured in fresh media without antibiotics. To examine attachment and/or invasion of M. avium, the macrophages were lysed immediately after washing, and the number of bacteria were enumerated by the CFU assay. Intracellular growth of M. avium was determined on days 1, 3, and 7 after infection. To account for all the mycobacteria in each group, corresponding lysates were combined and then the number of CFU was determined. To examine the efficacy of anti-mycobacterial treatments, CFU recovered from cells treated with medium alone were considered as 100% growth.
To determine whether treatment with ISS after infection alters M. avium growth, adherent cells were first infected with M. avium for 2 hrs and then these cells were cultured with fresh media containing ISS. Infected cells treated with M-ODN or medium alone served as controls. At day 7, intracellular growth of M. avium was assessed by CFU assay.

IL-12 (p70) = assay: Serum IL-12 (p70) by ELISA in mice; assay type: in vivo
Experimental: (§1) Serum obtained from M. avium-infected mice that received ISS or PBS was assayed for IFN-γ and IL-12 by ELISA using mouse IFN-γ and IL-12 (p70) ELISA kits (Endogen, Inc. Woburn, […]), respectively, and following the manufacturer's instructions.

IFN-γ = assay: Serum IFN-γ by ELISA in mice; assay type: in vivo
Experimental: as §1

[2] = other experiments, data not shown

5′-TGACTGTGAACGTTCGAGATGA-3′ (SEQ ID NO:1) [ISS]
histopathology of the livers ([1]; vs PBS-treated infected mice): no significant histopathological differences
granulomas in the spleen ([1]; week 4, vs infected mice treated with PBS): notably smaller in size and surrounded by mononuclear cells
granulomas in the spleens ([1]; week 6, vs PBS-treated infected mice): not significantly different
inhibition of intracellular growth of M. avium in mBMDM from knockout mice (M. avium; NADPH oxidase−/−, iNOS−/−, TNF-α−/−, IL-12p40−/−, IFN-α/βR−/−, IFN-γR−/− mBMDM, ISS 3 days before infection): 60-85%
% of CFU (M. avium; mBMDM from IFN-αR−/− 129S6/SvEv, day 7): 10.9 ± 01.7^b %
% of CFU (M. avium; mBMDM from IFN-γR−/− 129S6/SvEv, day 7): 7.6 ± 01.3^b %
% of CFU (M. avium; mBMDM from IL-12 p40−/− C57B1/6, day 7): 26.4 ± 10.1^b %
% of CFU (M. avium; mBMDM from INOS−/− C57B1/6, day 7): 37.3 ± 4.6^b %
% of CFU (M. avium; mBMDM from NADPH oxidase−/− (gp91 phox−/−) C57B1/6, day 7): 11.4 ± 1.5^b %
% of CFU (M. avium; mBMDM from TNF-α−/− C57B1/6, day 7): 24.0 ± 6.0^b %
% of CFU (M. avium; mBMDM from Wild type 129S6/SvEV, day 7): 17.0 ± 4.0^b %
% of CFU (M. avium; mBMDM from Wild type C57B1/6, day 7): 18.2 ± 7.3^b %
reduction of bacterial growth in mBMDM (M. avium; mBMDM infected first, then treated, ISS 10 μg/ml, CLA 0.1 μg/ml, 7 days after infection, compared to medium alone): 68%
inhibition of intracellular growth of M. avium in mBMDM (M. avium; treated 72 hrs before infection, day 7): 80%
decrease of intracellular growth of M. avium in mBMDM (M. avium; treated for 7 days starting two hours after infection, vs M-ODN or medium alone): 68%
serum IL-12 levels (IL-12 (p70); M. avium-infected mice (10^6 organisms/mouse), 2, 4, 6 weeks, below ELISA detection): < 5 pg/mL
time for serum IL-12 to attain basal levels post injection (IL-12 (p70); [2]): ≤ 3 weeks
time of peak serum level of IL-12 after administration (IL-12 (p70); [2]): 1 days
serum IFN-γ levels (IFN-γ; M. avium-infected mice (10^6 organisms/mouse), 2, 4, 6 weeks, ISS-pretreated vs PBS-pretreated): no significant differences
time for serum IFN-γ to attain basal levels post injection (IFN-γ; [2]): ≤ 3 weeks
time of peak serum level of IFN-γ after administration (IFN-γ; [2]): 1 days

— patent US6552006B2, “Immunomodulatory polynucleotides in treatment of an infection by an intracellular pathogen” (The Regents of the University of California, priority 2000, dated 2003)
